Reference: patent publication EP0192976A1, “Compounds having antihyperlipemic activity, processes for the preparation thereof and pharmaceutical compositions containing them” (BOEHRINGER BIOCHEMIA ROBIN S.p.A., priority 1985, dated 1986)
Like-named read-outs stand apart in the source and are kept apart here.

Experiments:
[1] = tested on: thrombosis induced by the administration of arachidonic acid, as well as colla- gene and adrenalin; test: Mouse antithrombotic assay (di Minno and Silver); type: in vivo; settings: orally administered at doses from 100 to 250 mg/kg; thrombosis induced by arachidonic acid, and by collagen and adrenalin
From the text: Exper. Therap. 225, 57 (1983).

[2] = tested on: Fasting induced lipolysis; test: Antilipolytic activity, fasting induced lipolysis (free fatty acids); type: in vivo; settings: fasted for 24 hours
Description: (§1) The compounds were administered orally. […] The results are expressed as µEq/1 of free fatty acids.
10 Animals per group - Normally feeded for 6 days, then fasted for 24 hours and orally administered with the test compounds.

ear marginal veins [3] = settings: guinea pig, in vivo
From the text: (§7) Such a side-effect may be experimented on male albino Guinea pigs, weighing 300-400 g, normally feeded and housed in silent room, by observing the vasodilation of ear marginal veins, after administration of the test compounds.

[4] = tested on: fructose induced hypertriglyceridemia; test: Fructose induced hypertriglyceridemia; type: in vivo, Male Sprague-Dawley rats; settings: fructose and Triton induced hypertriglyceridemias (test not given)
Description: (§2) The single compounds were administered orally at single equimolecular gradually increasing doses, in order to comparatively evaluate their hypocholesterolemic and hypotriglyceridemic activities. Normolipidemic, and hypercholesterolemic and hypertriglyceridemic rats, following to administration of diets respectively enriched in cholesterol and cholic acid (Nath diet) or 79.5% fructose, were used.
(§3) Male Sprague-Dawley rats of 180-200 g body weight were used. The compounds under test were administered as 1% tylose suspension, by means of gastric probe, 10 animals per dose in comparison with controls, treated with the sole vehicle.
(§4) In the serum the following values were determined: • a) total cholesterol, by enzymatic method; • b) HDL cholesterol, by enzymatic method, after precipitation of the other lipoproteins by addition of phospho- tungstic acid; • c) triglycerides by enzymatic method, i.e. by means of enzymatic hydrolysis and dosage of the formed glycerol.
(§5) The dosage of the liver triglycerides has been carried out by enzymatic method on the evaporated liver extract with chloroform:methanol 2:1.
(§6) The results were evaluated and expressed as % variation with respect to the control groups.
The hypotriglyceridemyzing activity of the compounds of the invention, as already mentioned, was evaluated in fructose and Triton induced hypertriglyceridemias, in comparison with the following standard: 1,10-bisL2-(hydroxyethyl)thio]decane (3) and its nicotinate (4) and nicoti- noyloxymethylcarbonyloxy ester (5).
All the compounds were administered 'at equimolecular gradual dosages.

[5] = tested on: hypercholesterolemic animals (Nath diet); test: Hypocholesterolemic/hypotriglyceridemic activity in hypercholesterolemic rats (Nath diet); type: in vivo, Male Sprague-Dawley rats; settings: oral
Description: as §2, §3
Four dose levels: 1, 2, 4, 8 10^-3 mol/kg were used for each compound under test. The body growth and liver weight were evaluated.
as §4, §5, §6

[6] = tested on: Adrenalin induced lypolysis; test: Antilipolytic activity, adrenalin induced lipolysis (free fatty acids); type: in vivo; settings: 1·10^-3 mol/kg oral
Description: as §1
10 Animals per group - Feeded and housed for one weed, then administered orally and stimulated with adrenalin 1 mg/kg i.p., respectively 30 and 60 min. before killing.

Normolipolysis = test: Antilipolytic activity, normolipolysis (free fatty acids); type: in vivo; settings: for antilipolytic activity: oral, under normal feeding conditions and in lipolysis induced by fasting or adrenalin
Description: as §1
10 Animals per group - Normally feeded for 7 days, then administered with the test compounds.

ear marginal veins [7] = test: Vasodilation of ear marginal veins (flushing side-effect); settings: Guinea pigs, 1·10^-3 mol/kg
From the text: as §7

[8] = 2 hours after 1·10^-3 mol/kg oral single dose
[9] = 4 hours after 1·10^-3 mol/kg oral single dose
[10] = 8 hours after 1·10^-3 mol/kg oral single dose
[11] = 4·10^-3 mol/kg, % variation versus controls
[12] = 30', adrenalin 1 mg/kg i.p. 30 min before killing
[13] = 60', adrenalin 1 mg/kg i.p. 60 min before killing
[14] = 2 hours after 1·10^-3 mol/kg oral single dose, normally fed
[15] = 4 hours after 1·10^-3 mol/kg oral single dose, normally fed
[16] = 8 hours after 1·10^-3 mol/kg oral single dose, normally fed
[17] = Basal, normally fed 7 days, group later given 1·10^-3 mol/kg oral single dose

SMILES | protection from thrombosis [1] | free fatty acids [2, 8] [µEq/1] | free fatty acids [2, 9] [µEq/1] | free fatty acids [2, 10] [µEq/1] | Vasodilating effect: Beginning (ear marginal veins [3]) | Vasodilating effect: Beginning of disappearance (ear marginal veins [3]) | Vasodilating effect: Maximal effect (ear marginal veins [3]) | FFA [6, 12] [μEq/l] | FFA [6, 13] [μEq/l] | free fatty acids (Normolipolysis; [14]) [µEq/1] | free fatty acids (Normolipolysis; [15]) [µEq/1] | free fatty acids (Normolipolysis; [16]) [µEq/1] | free fatty acids (Normolipolysis; [17]) [µEq/1] | other results
CCC(C)C(NC(=O)c1cccnc1)C(=O)OCCSCCCCCCCCCCSCCOC(=O)C(NC(=O)c1cccnc1)C(C)CC (centres unmarked) | protect the mouse from thrombosis | – | – | – | – | – | – | – | – | – | – | – | – | –
Cc1cnc(C(=O)NCC(=O)OCCSCCCCCCCCCCSCCOC(=O)CNC(=O)c2cnc(C)cn2)cn1 [1,10-bis[2-(5-methylpyrazinoylglycyl)ethylthio]decane] | protect the mouse from thrombosis | – | – | – | – | – | – | – | – | – | – | – | – | –
O=C(NC(Cc1ccccc1)C(=O)OCCSCCCCCCCCCCSCCOC(=O)C(Cc1ccccc1)NC(=O)c1cccnc1)c1cccnc1 (centres unmarked) [1,10-bis[2-(nicotinoylphenylalanyl)ethylthio]decane] | protect the mouse from thrombosis | – | – | – | – | – | – | – | – | – | – | – | – | –
O=C(CNC(=O)c1cccnc1)OCCSCCCCCCCCCCSCCOC(=O)CNC(=O)c1cccnc1 [Compound 1] | protect the mouse from thrombosis | 480 | 430 | 400 | == | == | == | 450 | 400 | 200 | 225 | 270 | 230 | triglyceride hepatic concentration, percent variations [4]: -10 to +10%; liver weight ([5]; 4·10^-3 mol/kg): no substantial changes; decrease in hematic triglycerides [5, 11]: 4%; decrease in hepatic triglycerides [5, 11]: 48%; decrease of total plasmatic cholesterol [5, 11]: 37%; increase in HDL cholesterol [5, 11]: 7%
O=C(O)c1cccnc1 [Compound 2, nicotinic acid] | – | 180 | 190 | 950 | – | – | – | 340 | 650 | 110 | 160 | 560 | 260 | antilipolytic activity (Normolipolysis): proved to have antilipolytic activity; Vasodilating effect: Beginning (ear marginal veins [7]): 3'; Vasodilating effect: Beginning of disappearance (ear marginal veins [7]): 20'; Vasodilating effect: Maximal effect (ear marginal veins [7]): 6'
OCCSCCCCCCCCCCSCCO [Compound 3, 1,10-bis[2-(hydroxyethyl)thio]decane] | – | – | – | – | – | – | – | – | – | – | – | – | – | triglyceride hepatic concentration, increases [4]: 40-50%
O=C(OCCSCCCCCCCCCCSCCOC(=O)c1cccnc1)c1cccnc1 [Compound 4] | – | 250 | 240 | 970 | 10' | 48' | 25' | 295 | 625 | 120 | 155 | 450 | 230 | triglyceride hepatic concentration, increases [4]: 40-50%; preliminar increase of the total cholesterol ([5]; 2·10^-3 mol/kg, versus controls): 10%; HDL concentration ([5]; all the assayed doses, the decrease lessened with increasing dose): marked decrease; triglyceride hematic concentration ([5]; all the tested doses, tendency to decrease with increasing dose): always higher than that in the control animals; decrease of the total cholesterol versus controls ([5]; doses above 2·10^-3 mol/kg, did not vary increasing the dose): 50%; liver weight ([5]; over the tested doses): gradual increase
O=C(COC(=O)c1cccnc1)OCCSCCCCCCCCCCSCCOC(=O)COC(=O)c1cccnc1 [Compound 5, 1,10-bis[2-(nicotino-yloxymethylcarbonyloxy)ethylthio]decane] | – | 207 | 228 | 744 | 13' | 51' | 30' | 270 | 610 | 120 | 170 | 260 | 240 | triglyceride hepatic concentration, percent variations [4]: -10 to +10%; concentration of hepatic triglycerides ([5]; 4·10^-3 mol/kg): increase; decrease in hematic HDL cholesterol [5, 11]: 6%; decrease in hematic triglycerides [5, 11]: 34%; decrease of total plasmatic cholesterol [5, 11]: 30%; antilipolytic activity (Normolipolysis): proved to have antilipolytic activity
O=C(CNC(=O)c1cncc(Br)c1)OCCSCCCCCCCCCCSCCOC(=O)CNC(=O)c1cncc(Br)c1 [Example 5, 1,10-Bis[2-(5-bromn-nicotinoylglicyl)ethyl-thio]decane] | protect the mouse from thrombosis | – | – | – | – | – | – | – | – | – | – | – | – | –
CC(NC(=O)c1cccnc1)C(=O)OCCSCCCCCCCCCCSCCOC(=O)C(C)NC(=O)c1cccnc1 (centres unmarked) [Example 7, 1,10-bis[2-(nicotinoyialanylethyl)thio]decane] | protect the mouse from thrombosis | – | – | – | – | – | – | – | – | – | – | – | – | –
